Reference: patent publication US20180022810A1, “USE OF CXCR3 INHIBITORS FOR PROTECTING AGAINST FETAL WASTAGE” (Children's Hospital Medical Center, priority 2015, published 2018)

Test system: C57BL/6 female mice bearing allogeneic pregnancy sired by Balb/c males
Assay: Fetal wastage and in utero Lm invasion after virulent Lm (strain 10403s) prenatal infection, allogeneic pregnancy
Assay type: in vivo
Conditions: virulent Lm 10^4 CFU, ampicillin in drinking water

CC1(C)S[C@@H]2[C@H](NC(=O)[C@H](N)c3ccccc3)C(=O)N2[C@H]1C(=O)O [ampicillin]
benefits (protection against fetal wastage) (treatment delayed until 24 hours post-infection): uniformly dissipated
protection against fetal wastage (treatment initiated 12 hours after infection): near complete protection
